Results reported in paper PMC6026317, “Molecular elements in FGF19 and FGF21 defining KLB/FGFR activity and specificity” (Molecular Metabolism, 2018).
Ends that are not written are not given here.

Legend:
[1] = test system: FGF21-induced ERK phosphorylation in human KLB overexpressing 293T HEK cells (293/KLB); assay: Peptide antagonism of FGF21-induced pERK, AlphaLISA; type: cell-based; settings: 293/KLB cells; fixed dose of FGF21, 10 min at 37° C; n = 3
Protocol: (§1) 293T HEK cells expressing KLB (or KL) or Hep3B cells were plated to 5–6 x 10^4 cells/well density in 96-well cell culture plate coated with poly-D-Lysine (Corning). The cells were serum starved for four hours in 0.1% BSA fraction V (ThermoFisher) containing media prior to treatment with protein and/or an antagonist peptide at the mentioned concentrations for 10 min at 37° C. For the antagonist assays, a chosen fixed dose within the range of 0.8–30 nM (depending on the cell type) of FGF21 or FGF19 stimulant was added to all the wells. BaF3 cells expressing human KLB/FGFR1c or human KLB/FGFR4-1c chimera were seeded at 5 × 10^5 cells/well density in 96-well cell culture plate and serum-starved overnight. FGF21/19 analogs were diluted in 0.02% Tween-20 containing RPMI1640 medium and the cells were treated for 15 min at 37° C. Following the respective cell treatments, the cells were lysed (with lysis buffer provided in the kit) for 10 min at room temperature on a shaker and the lysate was mixed with reaction mixture (consisting of reaction buffer, activation buffer, acceptor and donor beads provided in the kit). Phosphorylated ERK1/2 (pERK) levels were subsequently recorded by EnSpire Alpha or Envision Multilabel plate reader (Perkin Elmer). The cell assays corresponding to 293/KLB or Hep3B cells were carried out with AlphaLISA SureFire Ultra pERK1/2 (Thr 202/Tyr204) kit (Perkin Elmer), and BaF3 cells were done using AlphaScreen pERK1/2 (Thr202/Tyr204) kit (Perkin Elmer).
All cellular phosphorylation data were analyzed using 3-parameter non-linear regression curve in GraphPad Prism 7. Graphs are represented as relative maximal (100%) response of the positive control. All other test analog signals were adjusted accordingly as % values. For antagonistic assays, the difference between the p-ERK signal at baseline (fixed dose of FGF-stimulation, no antagonist peptide added) and the highest dose of the positive control, either FGF21^18−181, 21C25 or 19C26 for respective assay, was set to 100%. Similarly, for an agonist assay, the difference between the p-ERK signal of baseline (only cell culture medium, no agonist) and the highest dose of the positive control either FGF21 in 293/KLB cells or FGF19 in Hep3B cells was used to establish 100% response. Each peptide and protein analog was tested in triplicates in three independent experiments (n = 3), and normalized graphs plotted are expressed as mean ± SD unless otherwise noted.
The C-terminal region of FGF21 binds to KLB as previously implied by FGF21^18−181 antagonism. […] For comparative purposes, we utilized an in vitro assay in which we monitored dose-dependent attenuation of FGF-induced ERK phosphorylation in human KLB overexpressing 293T HEK cells (293/KLB).

[2] = test system: FGF19 signaling in 293/KLB cells; assay: Peptide antagonism of FGF19-induced pERK, AlphaLISA; type: cell-based, human; settings: fixed dose of FGF19, 10 min at 37° C, n = 3
Protocol: as §1, with “Following the respective cell treatments, the cells were lysed (with lysis buffer provided in the kit) for 10 min at room temperature on a shaker and the lysate was mixed with reaction mixture (consisting of reaction buffer, activation buffer, acceptor and donor beads provided in the kit).” left out, “The cell assays corresponding to 293/KLB or Hep3B cells were carried out with AlphaLISA SureFire Ultra pERK1/2 (Thr 202/Tyr204) kit (Perkin Elmer), and BaF3 cells were done using AlphaScreen pERK1/2 (Thr202/Tyr204) kit (Perkin Elmer).” left out
(§2) All cellular phosphorylation data were analyzed using 3-parameter non-linear regression curve in GraphPad Prism 7. […] Each peptide and protein analog was tested in triplicates in three independent experiments (n = 3), and normalized graphs plotted are expressed as mean ± SD unless otherwise noted.

lean (C57BL/6J) mice = assay: In vivo peptide antagonism study, cFos and EGR1 mRNA in pancreas and eWAT; set-up: species or system mouse; settings: WAT and pancreas
Text: All animal studies were approved by and performed according to the guidelines of the Institutional Animal Care and Use Committee of the University of Cincinnati (Cincinnati, USA). Eight-week old male C57BL/6J mice (Jackson Laboratories) were given ad libitum access to either a chow diet (lean mice), or a high-fat high-sugar diet (HFD, DIO mice) containing 58% kcal from fat (Research Diets, catalog# D12331). For DIO mice, animals were maintained on the HFD for a minimum of 3 months prior to initiation of the pharmacological studies. The mice were maintained at 22 °C on a 12-h light–dark cycle with free access to water. Before the beginning of the studies, mice were randomized into treatment groups according to body weight. All injections and tests were performed during the light cycle with a group size of n = 8.
Mice were administered vehicle, FGF21 (1 mg/kg), or FGF19 (1 mg/kg) alone or in combination with 19C26,A^26 (30 mg/kg), (dosed 15 min prior to FGF21 or FGF19 administration) via sc injections. One-hour post FGF21 or FGF19 dosing, the mice were sacrificed and their plasma, pancreas, and epididymal white adipose tissue (eWAT) were harvested for analyses. Total RNA was isolated from pancreatic and eWAT tissues using Trizol phenol-chloroform extraction (Invitrogen, Cat#155596026) and purified using an RNeasy mini (Cat#74104) and on-column DNAse digest (Cat#79254) kits (Qiagen). Following reverse transcription, levels of cFos and early growth response-1 (EGR1) mRNA levels were subsequently probed by quantitative PCR (ThermoFisher) and analyzed by ΔΔCT method.
Statistical analyses for in vivo experiments were performed on data using a one- (Figure 5A,B and 5D) or two-way (Figure 5C) ANOVA followed by Tukey post hoc multiple comparison analysis. All results are presented as mean ± SEM, n = 5–8, and P < 0.05 was considered significant. Group size estimations were based upon a power calculation to minimally yield an 80% chance to detect a significant difference in body weight of P < 0.05.

[3] = test system: signaling of FGF1 in 293/KLB cells; assay: Peptide antagonism of FGF1 signaling in 293/KLB cells; type: cell-based, human; settings: data not shown
[4] = test system: FGF19 signaling in Hep3B cells; assay: Peptide antagonism of FGF19 signaling in Hep3B cells; type: cell-based, human; settings: n = 3
Protocol: as §1, with “Following the respective cell treatments, the cells were lysed (with lysis buffer provided in the kit) for 10 min at room temperature on a shaker and the lysate was mixed with reaction mixture (consisting of reaction buffer, activation buffer, acceptor and donor beads provided in the kit).” left out, “The cell assays corresponding to 293/KLB or Hep3B cells were carried out with AlphaLISA SureFire Ultra pERK1/2 (Thr 202/Tyr204) kit (Perkin Elmer), and BaF3 cells were done using AlphaScreen pERK1/2 (Thr202/Tyr204) kit (Perkin Elmer).” left out
as §2

[5] = test system: signaling of FGF23 in 293/KL cells overexpressing human Klotho; assay: Peptide antagonism of FGF23 signaling in 293/KL cells; type: cell-based; settings: data not shown
293/KLB cells = assay: Agonist pERK AlphaLISA assay in 293/KLB cells; type: cell-based, human; settings: 10 min at 37° C, n = 3
Protocol: as §1
as §2, with “7. Graphs are represented as relative maximal (100%) response of the positive control. All other test analog signals were adjusted accordingly as % values.” for “7.”

human FGFR1c/KLB = molecular target: T1, human FGFR1c/KLB (Homo sapiens, UniProt P11362+Q86Z14); assay: AlphaScreen cell-free binding assay, displacement of biotinylated FGF21; settings: peptides compete with FGF21 for human FGFR1/KLB complex, mean, n = 2, NC = Not Calculated due to negligible activity at the tested concentrations
T1 construct: while adding human soluble KLB generated a signal; purchased R&D Systems
T1 sequence (Q86Z14 1-996 limits assumed): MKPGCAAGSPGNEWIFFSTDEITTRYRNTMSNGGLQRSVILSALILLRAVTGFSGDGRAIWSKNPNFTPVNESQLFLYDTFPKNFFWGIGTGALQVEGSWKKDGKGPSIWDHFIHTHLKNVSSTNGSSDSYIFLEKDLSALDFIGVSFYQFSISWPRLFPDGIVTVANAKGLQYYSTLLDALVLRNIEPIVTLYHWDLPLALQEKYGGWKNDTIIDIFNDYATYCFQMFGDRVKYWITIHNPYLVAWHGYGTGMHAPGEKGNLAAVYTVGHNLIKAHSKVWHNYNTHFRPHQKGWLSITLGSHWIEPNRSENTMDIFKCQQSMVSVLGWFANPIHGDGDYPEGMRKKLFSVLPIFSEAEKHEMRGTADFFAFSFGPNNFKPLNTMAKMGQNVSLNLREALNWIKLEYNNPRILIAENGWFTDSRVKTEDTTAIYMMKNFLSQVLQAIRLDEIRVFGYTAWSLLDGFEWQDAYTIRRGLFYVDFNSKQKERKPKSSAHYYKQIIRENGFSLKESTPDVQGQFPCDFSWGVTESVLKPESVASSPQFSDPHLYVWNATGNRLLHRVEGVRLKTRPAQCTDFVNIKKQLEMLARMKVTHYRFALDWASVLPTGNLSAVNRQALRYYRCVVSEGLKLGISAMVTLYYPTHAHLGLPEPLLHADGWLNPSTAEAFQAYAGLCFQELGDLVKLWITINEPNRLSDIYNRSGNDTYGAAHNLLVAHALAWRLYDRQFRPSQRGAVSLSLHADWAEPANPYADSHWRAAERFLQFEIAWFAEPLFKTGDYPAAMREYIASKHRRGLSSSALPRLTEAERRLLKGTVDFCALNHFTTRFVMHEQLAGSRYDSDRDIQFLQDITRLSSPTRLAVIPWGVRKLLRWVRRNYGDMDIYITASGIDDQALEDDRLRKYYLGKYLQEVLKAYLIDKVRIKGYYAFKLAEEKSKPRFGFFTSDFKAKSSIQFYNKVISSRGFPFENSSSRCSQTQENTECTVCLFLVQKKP
T1 sequence (P11362 22-376 partner limits assumed): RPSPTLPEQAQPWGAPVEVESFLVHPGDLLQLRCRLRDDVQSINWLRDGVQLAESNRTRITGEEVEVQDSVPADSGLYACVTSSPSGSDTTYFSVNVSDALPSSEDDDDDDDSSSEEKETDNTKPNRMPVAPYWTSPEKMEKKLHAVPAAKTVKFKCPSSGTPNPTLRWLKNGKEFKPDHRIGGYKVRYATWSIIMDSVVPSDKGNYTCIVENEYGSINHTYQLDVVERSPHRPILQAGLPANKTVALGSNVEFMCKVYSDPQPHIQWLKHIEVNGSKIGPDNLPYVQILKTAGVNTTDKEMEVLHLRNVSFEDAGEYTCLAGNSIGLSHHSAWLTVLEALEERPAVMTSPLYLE
Protocol: Biotinylated FGF21 was coupled to Streptavidin-coated donor beads (AlphaScreen technology, Perkin Elmer), and the ectodomains of human FGFR4 fused to Fc (R&D Systems) or FGFR1c fused to Fc (R&D Systems) were coupled to Protein A acceptor beads (AlphaScreen technology, Perkin Elmer). Human KLB protein (R&D Systems) was added to the mixture of biotinylated-FGF21-Streptavidin donor beads and FGFR-Fc-Protein A acceptor beads, bringing the beads in close proximity producing a signal, in the presence of 5 μg/ml Heparin and 0.1% BSA. Increasing doses of FGF21 C-terminal peptides were added and if their binding to the receptor complex were to take place, the biotinylated FGF21 would be displaced to consequently decrease the signal. The EnVision Multilabel Plate Reader (Perkin Elmer) was used to quantify the emitted light signal at 570 nm.
Supplementary file mmc1.pdf: Multimedia component 1 Table S1. Nomenclature for FGF protein and C-terminal peptide analogs. Table S2. Receptor binding of C-terminal FGF21 Ala-scan peptides. IC50 values (μM, mean, n = 2) with fold-change for 21C25 Ala-scan peptides versus native peptide in a cell free AlphaScreen binding assay where the 21C25 Ala peptides competed with FGF21 to associate with the human FGFR1/KLB complex. NC denotes where IC50 values were Not Calculated due to negligible activity at the tested concentrations.

Substance: 19C25: FGF19-based C-terminal peptide of 25 amino acids (LETDSMDPFGLVTGLEAVRSPSFEK-NH2)
- Antagonism of FGF21 signaling (pERK), in words [1]: comparable to FGF21^18−181 in their antagonistic effect

Substance: 19C26,A^26: 19C26 with alanine substitution of the terminal lysine; most potent peptide antagonist (PLETDSMDPFGLVTGLEAVRSPSFEA-NH2)
- Antagonism of FGF21 signaling (pERK), in words [1]: at least twenty-fold greater potency
- Antagonism of FGF19 signaling (pERK), in words [2]: at least twenty-fold greater potency
- cFos and EGR1 mRNA levels, peptide antagonist alone (lean (C57BL/6J) mice; 30 mg/kg sc): no effect on cFos and EGR1 mRNA levels
- Block of FGF19- or FGF21-stimulated cFos and EGR1 gene induction (lean (C57BL/6J) mice; antagonist 30 mg/kg sc 15 min before FGF19 or FGF21 1 mg/kg sc, one hour post dosing): completely eliminated the ability of FGF19 or FGF21 to stimulate gene induction

Substance: 19C26: FGF19-based C-terminal peptide of 26 amino acids (169-194), C-terminal amide (PLETDSMDPFGLVTGLEAVRSPSFEK-NH2)
- Attenuation of FGF1 signaling, in words [3]: unable to attenuate signaling of FGF1
- Antagonism of FGF19 signaling (pERK), in words [4]: blocked FGF19 activity comparably to that of FGF21
- Antagonism of FGF21 signaling (pERK), in words [1]: comparable to FGF21^18−181 in their antagonistic effect
- Attenuation of FGF23 signaling, in words [5]: unable to attenuate signaling
- Antagonism of FGF19 signaling (pERK), in words [2]: blocked FGF19 activity comparably to that of FGF21

Substance: 21C22: C-terminal FGF21 peptide of 22 residues (VGSSDPLSMVGPSQGRSPSYAS-NH2; UniProt Q9NSA1 188-209, looked up, fragment)
- Antagonism of FGF21 signaling (pERK), in words [1]: had no effect within the dose range examined

Substance: FGF2
- pERK agonist activity, in words (293/KLB cells): picomolar activities

Substance: FGF19: Human FGF19 (#O95750: 23–216, designated 1–194)
- cFos and EGR1 transcriptional activity, FGF alone (lean (C57BL/6J) mice; 1 mg/kg sc, one hour): induced robust transcriptional activity in each tissue
- pERK agonist activity, in words (293/KLB cells): nanomolar potencies

Substance: PPDVGSSDPLSMVGPSQARSPSYAS-NH2 [174 G]
- IC50 (human FGFR1c/KLB): 150 nM

Substance: PPDVGSSDPLSMVGPSQGASPSYAS-NH2 [175 R]
- IC50 (human FGFR1c/KLB): 50 nM

Substance: PPDVGSSDPLSMVGPSQGRSPSYAA-NH2 [181 S]
- IC50 (human FGFR1c/KLB): 50 nM

Substance: PPDVGSSDPLSMVGPSQGRSPSYAS-NH2 [21C25]
- IC50 (human FGFR1c/KLB): 150 nM
